Organism: Rattus norvegicus
Assay: DrugMatrix - Regimen: Daily Repeat
Type: toxicity, organism-based, Sprague-Dawley
Parameters: regimen Daily Repeat, gender Male, age 6-8 weeks
Details: in vivo, po, 0 mg/kg, route oral GAVAGE, dose level Control, […]; for ABSOLUTE BASOPHIL / ABSOLUTE EOSINOPHIL / ABSOLUTE LYMPHOCYTE / ABSOLUTE MONOCYTE / BASOPHIL / EOSINOPHIL / ERYTHROCYTE COUNT / HEMATOCRIT / HEMOGLOBIN / LEUKOCYTE COUNT / LYMPHOCYTE / MEAN CORPUSCULAR HEMOGLOBIN / MEAN CORPUSCULAR HEMOGLOBIN CONCENTRATION / MEAN CORPUSCULAR VOLUME / MONOCYTE / NEUTROPHIL / PLATELET COUNT: tissue Blood
[1] = 72 h, tissue Plasma, time 3 day
[2] = 120 h, tissue Plasma, time 5 day

`C=CCN` [ALLYLAMINE] gave an ABSOLUTE BASOPHIL (72 h, time 3 day) of 50 cells/µL, an ABSOLUTE EOSINOPHIL (72 h, time 3 day) of 43.3 cells/µL and an ABSOLUTE LYMPHOCYTE (72 h, time 3 day) of 9670 cells/µL. It also gave an ABSOLUTE MONOCYTE (72 h, time 3 day) of 210 cells/µL, a BASOPHIL (72 h, time 3 day) of 0.4% and an EOSINOPHIL (72 h, time 3 day) of 0.37%. The “ERYTHROCYTE COUNT” value (72 h, time 3 day) was 6.82 x10E6/uL, the HEMATOCRIT (72 h, time 3 day) was 46.77% and the HEMOGLOBIN (72 h, time 3 day) was 14.53 G/DL. For the same compound, the “LEUKOCYTE COUNT” value (72 h, time 3 day) was 11.77 x10E3/uL, the LYMPHOCYTE (72 h, time 3 day) was 82.1% and the “MEAN CORPUSCULAR HEMOGLOBIN” value (72 h, time 3 day) was 21.33 pg. For the same compound, the “MEAN CORPUSCULAR HEMOGLOBIN CONCENTRATION” value (72 h, time 3 day) was 31.13 G/DL, the “MEAN CORPUSCULAR VOLUME” value (72 h, time 3 day) was 68.57 fL and the MONOCYTE (72 h, time 3 day) was 1.8%. For the same compound, the NEUTROPHIL (72 h, time 3 day) was 14.83%, the “PLATELET COUNT” value (72 h, time 3 day) was 1303.33 x10E3/uL and the “ALANINE AMINOTRANSFERASE” value [1] was 46.67 u/L. The ALBUMIN [1] was 4.17 G/DL, the “ALKALINE PHOSPHATASE” value [1] was 530 u/L and the “ASPARTATE AMINOTRANSFERASE” value [1] was 81.33 u/L. For the same compound, the “BLOOD UREA NITROGEN” value [1] was 17.67 mg/dL, the “CARBON DIOXIDE” value [1] was 41.67 mmol/L and the CHLORIDE [1] was 102 MEQ/L. For the same compound, the CHOLESTEROL [1] was 70.33 mg/dL, the “CREATINE PHOSPHOKINASE” value [1] was 372.67 u/L and the CREATININE [1] was 0.5 mg/dL. It also gave a GLUCOSE [1] of 184 mg/dL, an LIPASE [1] of 13.33 u/L and a PHOSPHORUS [1] of 10.2 mg/dL. For the same compound, the POTASSIUM [1] was 6.13 MEQ/L, the SODIUM [1] was 145 MEQ/L and the “TOTAL BILIRUBIN” value [1] was 0.43 mg/dL. The “TOTAL PROTEIN” value [1] was 6.7 G/DL, the “URIC ACID” value [1] was 0.83 mg/dL and the ABSOLUTE BASOPHIL (120 h, time 5 day) was 33.3 cells/µL. The ABSOLUTE EOSINOPHIL (120 h, time 5 day) was 56.7 cells/µL, the ABSOLUTE LYMPHOCYTE (120 h, time 5 day) was 9220 cells/µL and the ABSOLUTE MONOCYTE (120 h, time 5 day) was 230 cells/µL. For the same compound, the BASOPHIL (120 h, time 5 day) was 0.3%, the EOSINOPHIL (120 h, time 5 day) was 0.5% and the “ERYTHROCYTE COUNT” value (120 h, time 5 day) was 6.62 x10E6/uL. For the same compound, the HEMATOCRIT (120 h, time 5 day) was 46.43%, the HEMOGLOBIN (120 h, time 5 day) was 14.3 G/DL and the “LEUKOCYTE COUNT” value (120 h, time 5 day) was 10.96 x10E3/uL. The LYMPHOCYTE (120 h, time 5 day) was 83.83%, the “MEAN CORPUSCULAR HEMOGLOBIN” value (120 h, time 5 day) was 21.57 pg and the “MEAN CORPUSCULAR HEMOGLOBIN CONCENTRATION” value (120 h, time 5 day) was 30.77 G/DL. For the same compound, the “MEAN CORPUSCULAR VOLUME” value (120 h, time 5 day) was 70.13 fL, the MONOCYTE (120 h, time 5 day) was 2.1% and the NEUTROPHIL (120 h, time 5 day) was 12.53%. The “PLATELET COUNT” value (120 h, time 5 day) was 1056.67 x10E3/uL, the “ALANINE AMINOTRANSFERASE” value [2] was 41.33 u/L and the ALBUMIN [2] was 4.07 G/DL. The “ALKALINE PHOSPHATASE” value [2] was 603.33 u/L, the “ASPARTATE AMINOTRANSFERASE” value [2] was 80 u/L and the “BLOOD UREA NITROGEN” value [2] was 14.67 mg/dL. The “CARBON DIOXIDE” value [2] was 43 mmol/L, the CHLORIDE [2] was 104 MEQ/L and the CHOLESTEROL [2] was 88.33 mg/dL. The “CREATINE PHOSPHOKINASE” value [2] was 391.67 u/L, the CREATININE [2] was 0.47 mg/dL and the GLUCOSE [2] was 156 mg/dL. For the same compound, the LIPASE [2] was 10.67 u/L, the PHOSPHORUS [2] was 9.03 mg/dL and the POTASSIUM [2] was 6.1 MEQ/L. For the same compound, the SODIUM [2] was 145.67 MEQ/L, the “TOTAL BILIRUBIN” value [2] was 0.37 mg/dL and the “TOTAL PROTEIN” value [2] was 6.53 G/DL.

From ChEMBL document CHEMBL3885881, “DrugMatrix”
